Source: ChEMBL document CHEMBL4673355, “Thiacalixarene based quaternary ammonium salts as promising antibacterial agents” (Bioorg Med Chem, 2021)
Values belong to the compound of their own block, whether it stands above or below them.

Assays:
Type in all cases: functional
Staphylococcus aureus [1] = assay: Antibacterial activity against Staphylococcus aureus ATCC 6538 incubated for 24 hrs by CLSI broth microdilution method
Escherichia coli [2] = assay: Antibacterial activity against Escherichia coli ATCC 25922 assessed as reduction in bacterial growth incubated for 24 hrs by CLSI broth microdilution method; conditions: Escherichia coli, ATCC 25922, 24 h, read-out: MIC
Klebsiella pneumoniae [3] = assay: Antibacterial activity against Klebsiella pneumoniae ATCC 10031 assessed as reduction in bacterial growth incubated for 24 hrs by CLSI broth microdilution method
Pseudomonas aeruginosa [4] = assay: Antibacterial activity against Pseudomonas aeruginosa ATCC 9027 assessed as reduction in bacterial growth incubated for 24 hrs by CLSI broth microdilution method
Proteus sp. = assay: Antibacterial activity against […] resistant Proteus sp. clinical isolate 17 assessed as reduction in bacterial growth incubated for 24 hrs by CLSI broth microdilution method; conditions: Proteus sp. (in: enterobacteria)
Klebsiella sp. [5] = assay: Antibacterial activity against […] resistant Klebsiella sp. clinical isolate 12 assessed as reduction in bacterial growth incubated for 24 hrs by CLSI broth microdilution method
Klebsiella sp. [6] = assay: Antibacterial activity against […] resistant Klebsiella sp. clinical isolate 11 assessed as reduction in bacterial growth incubated for 24 hrs by CLSI broth microdilution method
Pseudomonas = assay: Antibacterial activity against methicillin- resistant Pseudomonas spp. clinical isolate 6 assessed as reduction in bacterial growth incubated for 24 hrs by CLSI broth microdilution method
Acinetobacter [7] = assay: Antibacterial activity against […] resistant Acinetobacter spp. clinical isolate 5 assessed as reduction in bacterial growth incubated for 24 hrs by CLSI broth microdilution method
Acinetobacter [8] = assay: Antibacterial activity against […] resistant Acinetobacter spp. clinical isolate 3 assessed as reduction in bacterial growth incubated for 24 hrs by CLSI broth microdilution method
Acinetobacter [9] = assay: Antibacterial activity against […] resistant Acinetobacter spp. clinical isolate 1 assessed as reduction in bacterial growth incubated for 24 hrs by CLSI broth microdilution method
[10] = Antibacterial activity against […] resistant Moraxella sp.829 clinical isolate assessed as reduction in bacterial growth incubated for 24 hrs by CLSI broth microdilution method; conditions: Moraxella catarrhalis
[11] = Antibacterial activity against […] resistant Moraxella sp.765 clinical isolate assessed as reduction in bacterial growth incubated for 24 hrs by CLSI broth microdilution method; conditions: Moraxella catarrhalis
[12] = Antibacterial activity against […] resistant Moraxella sp.764 clinical isolate assessed as reduction in bacterial growth incubated for 24 hrs by CLSI broth microdilution method; conditions: Moraxella catarrhalis
Staphylococcus aureus [13] = assay: Antibacterial activity against methicillin- resistant Staphylococcus aureus 25 clinical isolate assessed as reduction in bacterial growth incubated for 24 hrs by CLSI broth microdilution method
Staphylococcus aureus [14] = assay: Antibacterial activity against methicillin- resistant Staphylococcus aureus 2020 clinical isolate assessed as reduction in bacterial growth incubated for 24 hrs by CLSI broth microdilution method
[15] = test system: Staphylococcus intermedius; assay: Antibacterial activity against methicillin- resistant Staphylococcus intermedius 1143 clinical isolate assessed as reduction in bacterial growth incubated for 24 hrs by CLSI broth microdilution method
Staphylococcus aureus [16] = assay: Antibacterial activity against methicillin- resistant Staphylococcus aureus 983 clinical isolate assessed as reduction in bacterial growth incubated for 24 hrs by CLSI broth microdilution method
Staphylococcus aureus [17] = assay: Antibacterial activity against methicillin- resistant Staphylococcus aureus 967 clinical isolate assessed as reduction in bacterial growth incubated for 24 hrs by CLSI broth microdilution method
[18] = test system: Staphylococcus haemolyticus; assay: Antibacterial activity against methicillin- resistant Staphylococcus haemolyticus 837 assessed as reduction in bacterial growth incubated for 24 hrs by CLSI broth microdilution method
Pseudomonas aeruginosa [19] = assay: Bactericidal activity against Pseudomonas aeruginosa ATCC 27853 assessed as reduction in bacterial growth incubated for 24 hrs followed by replating on MH broth and further incubated for 24 hrs by CLSI broth microdilution method
Klebsiella pneumoniae [20] = assay: Bactericidal activity against Klebsiella pneumoniae ATCC 1813 assessed as reduction in bacterial growth incubated for 24 hrs followed by replating on MH broth and further incubated for 24 hrs by CLSI broth microdilution method
Escherichia coli [21] = assay: Bactericidal activity against Escherichia coli ATCC 25922 assessed as reduction in bacterial growth incubated for 24 hrs followed by replating on MH broth and further incubated for 24 hrs by CLSI broth microdilution method
Bacillus subtilis [22] = assay: Bactericidal activity against Bacillus subtilis 168 assessed as reduction in bacterial growth incubated for 24 hrs followed by replating on MH broth and further incubated for 24 hrs by CLSI broth microdilution method; conditions: Bacillus subtilis, 168, 24 h
[23] = test system: Staphylococcus epidermidis; assay: Bactericidal activity against Staphylococcus epidermidis assessed as reduction in bacterial growth incubated for 24 hrs followed by replating on MH broth and further incubated for 24 hrs by CLSI broth microdilution method; conditions: Staphylococcus epidermidis, read-out: MBC
Staphylococcus aureus [24] = assay: Bactericidal activity against Staphylococcus aureus ATCC 29213 assessed as reduction in bacterial growth incubated for 24 hrs followed by replating on MH broth and further incubated for 24 hrs by CLSI broth microdilution method; conditions: Staphylococcus aureus, ATCC 29213; time 48 hrs; read-out: MBC
Bacillus subtilis [25] = assay: Antibacterial activity against Bacillus subtilis 168 assessed as reduction in bacterial growth incubated for 24 hrs by CLSI broth microdilution method
Staphylococcus aureus [26] = assay: Antibacterial activity against Staphylococcus aureus ATCC 29213 by CLSI broth microdilution method
Staphylococcus aureus [27] = assay: Bactericidal activity against Staphylococcus aureus ATCC 29213
Escherichia coli [28] = assay: Bactericidal activity against Escherichia coli ATCC 25922

SMILES: CCCCCCCCOc1c2cc(C[N+](C)(C)CCN)cc1Cc1cc(C[N+](C)(C)CCN)cc(c1OCCCCCCCC)Cc1cc(C[N+](C)(C)CCN)cc(c1OCCCCCCCC)Cc1cc(C[N+](C)(C)CCN)cc(c1OCCCCCCCC)C2.[Cl-].[Cl-].[Cl-].[Cl-]
MIC (Staphylococcus aureus [1]): > 1000 µg/mL
MIC (Escherichia coli [2]): > 1000 µg/mL
MIC (Klebsiella pneumoniae [3]): > 1000 µg/mL
MIC (Pseudomonas aeruginosa [4]): > 1000 µg/mL

SMILES: CCCCCCCC[N+](C)(C)CCCNC(=O)COc1c2cc(C(C)(C)C)cc1Sc1cc(C(C)(C)C)cc(c1OCC(=O)NCCC[N+](C)(C)CCCCCCCC)Sc1cc(C(C)(C)C)cc(c1OCC(=O)NCCC[N+](C)(C)CCCCCCCC)Sc1cc(C(C)(C)C)cc(c1OCC(=O)NCCC[N+](C)(C)CCCCCCCC)S2.[Cl-].[Cl-].[Cl-].[Cl-]
MIC (Proteus sp.): 64 µg/mL
MIC (Klebsiella sp. [5]): 16 µg/mL
MIC (Klebsiella sp. [6]): 16 µg/mL
MIC (Pseudomonas): 16 µg/mL
MIC (Acinetobacter [7]): 16 µg/mL
MIC (Acinetobacter [8]): 16 µg/mL
MIC (Acinetobacter [9]): 8 µg/mL
MIC [10]: 16 µg/mL
MIC [11]: 16 µg/mL
MIC [12]: 16 µg/mL
MIC (Staphylococcus aureus [13]): 4 µg/mL
MIC (Staphylococcus aureus [14]): 16 µg/mL
MIC [15]: 2 µg/mL
MIC (Staphylococcus aureus [16]): 16 µg/mL
MIC (Staphylococcus aureus [17]): 16 µg/mL
MIC [18]: 16 µg/mL
MBC (Pseudomonas aeruginosa [19]): 32 µg/mL
MBC (Klebsiella pneumoniae [20]): 32 µg/mL
MBC (Escherichia coli [21]): 16 µg/mL
MBC (Bacillus subtilis [22]): 16 µg/mL
MBC [23]: 2 µg/mL
MBC (Staphylococcus aureus [24]): 1 µg/mL
MIC (Bacillus subtilis [25]; 24 h): 4 µg/mL
MIC (Bacillus subtilis [25]; Bacillus subtilis, 168, 24 h, read-out: MIC): 2 µg/mL

SMILES: CCCOc1c2cc(C[N+](C)(C)CCN)cc1Cc1cc(C[N+](C)(C)CCN)cc(c1OCCC)Cc1cc(C[N+](C)(C)CCN)cc(c1OCCC)Cc1cc(C[N+](C)(C)CCN)cc(c1OCCC)C2.[Cl-].[Cl-].[Cl-].[Cl-]
MIC (Staphylococcus aureus [1]): ≤ 10 µg/mL
MIC (Escherichia coli [2]): 500 µg/mL
MIC (Klebsiella pneumoniae [3]): 500 µg/mL
MIC (Pseudomonas aeruginosa [4]): 50 µg/mL

SMILES: CCCOc1c2cc(C[N+](C)(C)CCO)cc1Cc1cc(C[N+](C)(C)CCO)cc(c1OCCC)Cc1cc(C[N+](C)(C)CCO)cc(c1OCCC)Cc1cc(C[N+](C)(C)CCO)cc(c1OCCC)C2.[Cl-].[Cl-].[Cl-].[Cl-]
MIC (Staphylococcus aureus [26]): 16 µg/mL
MBC (Staphylococcus aureus [27]): 16 µg/mL
MBC (Escherichia coli [28]): 256 µg/mL
MIC (Staphylococcus aureus [1]): ≤ 10 µg/mL
MIC (Escherichia coli [2]): 32 µg/mL
MIC (Klebsiella pneumoniae [3]): 100 µg/mL
MIC (Pseudomonas aeruginosa [4]): 1000 µg/mL

Continued, in another order:

MIC (Staphylococcus aureus [1]): ≤ 10 µg/mL
MIC (Escherichia coli [2]): ≤ 10 µg/mL
MIC (Klebsiella pneumoniae [3]): ≤ 10 µg/mL
MIC (Pseudomonas aeruginosa [4]): 50 µg/mL
SMILES: CCCOc1c2cc(C[n+]3ccn(C)c3)cc1Cc1cc(C[n+]3ccn(C)c3)cc(c1OCCC)Cc1cc(C[n+]3ccn(C)c3)cc(c1OCCC)Cc1cc(C[n+]3ccn(C)c3)cc(c1OCCC)C2.[Cl-].[Cl-].[Cl-].[Cl-]

MIC (Staphylococcus aureus [26]): 16 µg/mL
MIC (Escherichia coli [2]): 16 µg/mL
SMILES: CCCOc1c2cc(C[N+](C)(C)C)cc1Cc1cc(C[N+](C)(C)C)cc(c1OCCC)Cc1cc(C[N+](C)(C)C)cc(c1OCCC)Cc1cc(C[N+](C)(C)C)cc(c1OCCC)C2.[Cl-].[Cl-].[Cl-].[Cl-]
MBC (Staphylococcus aureus [27]): 16 µg/mL
MBC (Escherichia coli [28]): 16 µg/mL
